Values of other authors as cited in US20260345483A1, “Pharmaceutical Formulation” (Klaria Pharma Holding AB, priority 2018, published 2026).

Key:
[1] = aqueous solution, ref [4]
[2] = subcutaneous injection compared with intramuscular injection, ref [3]
[3] = tested on: porcine buccal epithelium; conditions: enhancer concentration, ref [6]

| SMILES | pH of acceptable adrenaline stability [1] | pH of optimal adrenaline stability [1] | time of peak plasma concentration [2] | enhanced permeability with porcine buccal epithelium [3] |
| --- | --- | --- | --- | --- |
| CNCC(O)c1ccc(O)c(O)c1 (stereo not shown) [adrenaline] | < 5.5 | 3-4 | significantly delayed |  |
| CCCCCCCC/C=C\CCCCCCCC(=O)O [Oleic acid, oleic acid] |  |  |  | 1-10% |
